In one data set the test system is FXR. Conditions: cited from earlier work.
A further data set concerns the target T1, GPR119 (Homo sapiens, UniProt Q8TDV5).
T1 construct: Eurofine Cerep / Eurofine Panlabs Discovery Services
The experiment in a line: Selectivity, cellular functional assay. It counts as cell-based. From the text: (§1) Compound 20p was screened against a broad panel of NRs and GPCRs to determine its agonist activity in vitro. […]
(§2) The selectivity tests of compound 20p were investigated by Eurofine Cerep (86600, Celle-Levescault, France) and Eurofine Panlabs Discovery Services (No. 25, Wugong, 6th Road, Wugu District, New Taipai City, Taiwan). Compound binding was caluculated as a % inhibition of the binding of radioactively labeled ligand specific for each target. Cellular agonist effect wa calculated as a % of control response to a known reference agonist for each target and cellular antagonist effect as caluculated as a % inhibition of control reference agonist response for each target at 30 µM of compound 20p.
(§3) 12.3%; CAR -2.5%, PPAR alpha 0.0%; PPAR delta -3.6%; PPAR gamma -1.0%; PXR 4.5%; ER alpha -16.6%; ER beta 17% at 30 µM.

In another data set the target is T2, GPR40 (Homo sapiens, UniProt O14842).
T2 construct: Eurofine Cerep / Eurofine Panlabs Discovery Services
T2 sequence (O14842 whole entry): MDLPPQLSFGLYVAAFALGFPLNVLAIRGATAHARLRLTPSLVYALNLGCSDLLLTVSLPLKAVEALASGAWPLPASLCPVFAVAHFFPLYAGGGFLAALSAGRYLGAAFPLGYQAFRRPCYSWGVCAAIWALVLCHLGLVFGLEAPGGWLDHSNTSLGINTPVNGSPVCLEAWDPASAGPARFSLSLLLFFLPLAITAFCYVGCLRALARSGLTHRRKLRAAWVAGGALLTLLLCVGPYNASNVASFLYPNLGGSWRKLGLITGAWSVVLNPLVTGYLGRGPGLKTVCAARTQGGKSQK
The experiment in a line: Selectivity, cellular functional assay. Type of data set: cell-based.
Excerpt: as §1, §2, §3

Another data set concerns the target T3, GPR120 (Homo sapiens, UniProt Q5NUL3).
T3 construct: Eurofine Cerep / Eurofine Panlabs Discovery Services
The experiment in a line: Selectivity, cellular functional assay. Type of data set: cell-based.
Excerpt: as §1, §2, §3

A further data set deals with T4, PXR (Homo sapiens, UniProt O75469).
T4 construct: Eurofine Cerep / Eurofine Panlabs Discovery Services
The experiment in a line: Selectivity, NR functional assay. Type of data set: cell-based.
Excerpt: as §1, §2, §3

The target of a further data set is T5, LXR alpha (Homo sapiens, UniProt Q13133).
T5 construct: Eurofine Cerep / Eurofine Panlabs Discovery Services
T5 sequence (Q13133 whole entry): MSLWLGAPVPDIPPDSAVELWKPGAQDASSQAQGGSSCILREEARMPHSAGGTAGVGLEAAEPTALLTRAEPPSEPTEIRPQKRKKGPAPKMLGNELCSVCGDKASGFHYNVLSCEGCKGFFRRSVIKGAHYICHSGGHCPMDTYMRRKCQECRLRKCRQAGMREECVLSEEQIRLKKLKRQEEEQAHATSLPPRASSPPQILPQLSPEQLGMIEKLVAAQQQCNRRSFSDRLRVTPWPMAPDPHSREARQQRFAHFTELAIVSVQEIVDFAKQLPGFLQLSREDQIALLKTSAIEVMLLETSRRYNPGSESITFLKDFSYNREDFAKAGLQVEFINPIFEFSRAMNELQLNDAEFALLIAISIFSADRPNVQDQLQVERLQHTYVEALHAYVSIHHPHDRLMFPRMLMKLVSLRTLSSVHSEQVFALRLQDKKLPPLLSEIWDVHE
The experiment in a line: Selectivity, NR functional assay. Type of data set: cell-based.
Excerpt: as §1, §2, §3

A further data set has as its target T6, CAR (Homo sapiens, UniProt Q14994).
T6 construct: Eurofine Cerep / Eurofine Panlabs Discovery Services
The experiment in a line: Selectivity, NR functional assay. It counts as cell-based.
Excerpt: as §1, §2, §3

Another data set concerns the target T7, PPAR alpha (Homo sapiens, UniProt Q07869).
T7 construct: Eurofine Cerep / Eurofine Panlabs Discovery Services
The experiment in a line: Selectivity, NR functional assay. Type of data set: cell-based.
Excerpt: as §1, §2, §3

The target of the next data set is T8, PPAR gamma (Homo sapiens, UniProt P37231).
T8 construct: Eurofine Cerep / Eurofine Panlabs Discovery Services
T8 sequence (P37231 whole entry): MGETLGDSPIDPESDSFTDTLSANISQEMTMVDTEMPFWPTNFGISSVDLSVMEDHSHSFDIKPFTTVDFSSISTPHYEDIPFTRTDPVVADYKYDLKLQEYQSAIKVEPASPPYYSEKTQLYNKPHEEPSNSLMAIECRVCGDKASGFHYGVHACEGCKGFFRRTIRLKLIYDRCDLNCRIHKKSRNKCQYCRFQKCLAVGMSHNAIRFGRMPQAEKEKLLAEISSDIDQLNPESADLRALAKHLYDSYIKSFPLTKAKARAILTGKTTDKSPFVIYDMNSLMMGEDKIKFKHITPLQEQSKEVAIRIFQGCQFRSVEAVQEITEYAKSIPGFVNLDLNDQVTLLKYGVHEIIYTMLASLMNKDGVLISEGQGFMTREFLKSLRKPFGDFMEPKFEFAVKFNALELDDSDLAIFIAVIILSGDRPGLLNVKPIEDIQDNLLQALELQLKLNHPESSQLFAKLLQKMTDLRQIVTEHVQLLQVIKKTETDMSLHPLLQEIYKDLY
The experiment in a line: Selectivity, NR functional assay. Type of data set: cell-based.
Excerpt: as §1, §2, §3

Another data set deals with T9, PPAR delta (Homo sapiens, UniProt Q03181).
T9 construct: Eurofine Cerep / Eurofine Panlabs Discovery Services
T9 sequence (Q03181 whole entry): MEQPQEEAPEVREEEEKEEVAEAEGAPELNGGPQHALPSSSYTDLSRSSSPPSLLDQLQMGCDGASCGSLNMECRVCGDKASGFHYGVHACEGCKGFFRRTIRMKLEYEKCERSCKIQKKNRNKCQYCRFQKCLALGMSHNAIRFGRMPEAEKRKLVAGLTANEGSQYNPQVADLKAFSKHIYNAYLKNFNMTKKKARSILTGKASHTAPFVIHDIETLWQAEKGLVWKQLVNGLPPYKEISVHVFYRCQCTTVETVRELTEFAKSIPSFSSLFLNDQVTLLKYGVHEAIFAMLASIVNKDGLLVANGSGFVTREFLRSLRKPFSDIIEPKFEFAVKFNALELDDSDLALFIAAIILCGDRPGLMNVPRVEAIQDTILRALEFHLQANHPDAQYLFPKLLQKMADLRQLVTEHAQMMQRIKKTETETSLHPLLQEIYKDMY
The experiment in a line: Selectivity, NR functional assay. Type of data set: cell-based.
Excerpt: as §1, §2, §3

A further data set has as its target T10, LXR beta (Homo sapiens, UniProt P55055).
T10 construct: Eurofine Cerep / Eurofine Panlabs Discovery Services
The experiment in a line: Selectivity, NR functional assay. It counts as cell-based.
Excerpt: as §1, §2, §3

Another data set deals with T11, RXR alpha (Homo sapiens, UniProt P19793).
T11 construct: Eurofine Cerep / Eurofine Panlabs Discovery Services
T11 sequence (P19793 whole entry): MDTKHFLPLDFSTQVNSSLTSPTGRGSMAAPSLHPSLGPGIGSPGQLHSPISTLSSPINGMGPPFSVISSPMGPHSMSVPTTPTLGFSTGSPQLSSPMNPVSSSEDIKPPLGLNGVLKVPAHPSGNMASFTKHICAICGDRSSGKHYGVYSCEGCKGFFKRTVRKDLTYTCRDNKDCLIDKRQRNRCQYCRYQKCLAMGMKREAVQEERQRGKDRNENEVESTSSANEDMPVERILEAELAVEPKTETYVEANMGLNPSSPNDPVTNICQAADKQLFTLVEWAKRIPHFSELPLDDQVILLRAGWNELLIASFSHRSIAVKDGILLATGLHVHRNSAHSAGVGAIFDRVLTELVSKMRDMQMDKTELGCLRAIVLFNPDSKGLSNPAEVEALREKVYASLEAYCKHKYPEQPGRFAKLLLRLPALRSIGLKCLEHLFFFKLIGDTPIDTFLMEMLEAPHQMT
The experiment in a line: Selectivity, binding assay.
Excerpt: as §1, §2, §3

For another data set, the target named is T12, ER alpha (Homo sapiens, UniProt P03372).
T12 construct: Eurofine Cerep / Eurofine Panlabs Discovery Services
T12 sequence (P03372 whole entry): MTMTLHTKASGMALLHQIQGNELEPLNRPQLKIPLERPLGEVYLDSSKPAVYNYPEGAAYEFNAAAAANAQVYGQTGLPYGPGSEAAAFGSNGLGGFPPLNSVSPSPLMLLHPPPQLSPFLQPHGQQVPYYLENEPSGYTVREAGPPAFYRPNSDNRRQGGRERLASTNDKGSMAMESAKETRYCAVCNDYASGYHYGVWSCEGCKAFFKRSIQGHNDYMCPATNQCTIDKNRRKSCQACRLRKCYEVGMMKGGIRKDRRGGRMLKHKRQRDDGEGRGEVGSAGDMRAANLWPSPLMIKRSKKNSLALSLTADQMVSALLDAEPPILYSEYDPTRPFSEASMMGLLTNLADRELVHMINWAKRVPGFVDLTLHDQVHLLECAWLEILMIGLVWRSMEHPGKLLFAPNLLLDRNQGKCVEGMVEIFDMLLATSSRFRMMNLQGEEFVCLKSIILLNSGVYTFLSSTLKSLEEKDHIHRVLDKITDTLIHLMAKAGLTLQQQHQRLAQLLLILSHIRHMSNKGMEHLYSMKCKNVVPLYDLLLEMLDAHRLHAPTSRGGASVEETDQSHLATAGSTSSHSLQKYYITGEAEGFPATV
The experiment in a line: Selectivity, binding assay.
Excerpt: as §1, §2, §3

A further data set has as its target T13, ER beta (Homo sapiens, UniProt Q92731).
T13 construct: Eurofine Cerep / Eurofine Panlabs Discovery Services
The experiment in a line: Selectivity, binding assay.
Excerpt: as §1, §2, §3

In the next data set the test system is GPCRs and NRs. The experiment in a line: Broad panel of NRs and GPCRs. Conditions: in vitro agonist activity.
Excerpt: as §1, §2, §3

For orientation: EC50 means the concentration at which the effect is half-maximal. In general, inhibition refers to the change of the read-out against control, counted positive when it falls.

T6 sequence (Q14994 whole entry): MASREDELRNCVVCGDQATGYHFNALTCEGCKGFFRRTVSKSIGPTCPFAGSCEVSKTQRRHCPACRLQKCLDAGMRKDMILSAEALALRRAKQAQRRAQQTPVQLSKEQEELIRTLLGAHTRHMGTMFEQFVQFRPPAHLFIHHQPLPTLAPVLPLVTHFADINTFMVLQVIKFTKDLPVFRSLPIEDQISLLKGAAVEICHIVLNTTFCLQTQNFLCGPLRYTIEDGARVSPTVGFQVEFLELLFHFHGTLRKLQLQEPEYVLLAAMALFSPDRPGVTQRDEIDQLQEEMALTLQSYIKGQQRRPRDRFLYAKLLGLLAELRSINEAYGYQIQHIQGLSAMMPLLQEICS
T7 sequence (Q07869 whole entry): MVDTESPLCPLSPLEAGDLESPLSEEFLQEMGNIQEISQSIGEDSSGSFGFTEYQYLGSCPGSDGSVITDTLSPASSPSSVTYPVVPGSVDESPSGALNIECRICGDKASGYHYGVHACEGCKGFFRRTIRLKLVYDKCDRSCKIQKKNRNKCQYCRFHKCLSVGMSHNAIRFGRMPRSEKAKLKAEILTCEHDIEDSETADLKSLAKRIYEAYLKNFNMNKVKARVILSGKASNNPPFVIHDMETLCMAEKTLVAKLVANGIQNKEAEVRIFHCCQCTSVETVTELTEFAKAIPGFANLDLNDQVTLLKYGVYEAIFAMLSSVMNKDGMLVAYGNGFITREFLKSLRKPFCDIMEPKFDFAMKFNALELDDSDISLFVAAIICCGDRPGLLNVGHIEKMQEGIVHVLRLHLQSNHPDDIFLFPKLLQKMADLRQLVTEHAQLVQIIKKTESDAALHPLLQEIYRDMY
T3 sequence (Q5NUL3 whole entry): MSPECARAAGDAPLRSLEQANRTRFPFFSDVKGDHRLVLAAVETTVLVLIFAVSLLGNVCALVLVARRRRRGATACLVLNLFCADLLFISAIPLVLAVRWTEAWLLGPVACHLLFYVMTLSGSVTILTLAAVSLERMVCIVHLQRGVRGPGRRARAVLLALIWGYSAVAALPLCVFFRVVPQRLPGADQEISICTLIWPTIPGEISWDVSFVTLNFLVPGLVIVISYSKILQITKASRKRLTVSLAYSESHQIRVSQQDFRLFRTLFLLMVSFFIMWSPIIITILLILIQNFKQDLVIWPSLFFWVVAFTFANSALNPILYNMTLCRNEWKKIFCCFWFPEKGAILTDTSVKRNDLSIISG
T10 sequence (P55055 whole entry): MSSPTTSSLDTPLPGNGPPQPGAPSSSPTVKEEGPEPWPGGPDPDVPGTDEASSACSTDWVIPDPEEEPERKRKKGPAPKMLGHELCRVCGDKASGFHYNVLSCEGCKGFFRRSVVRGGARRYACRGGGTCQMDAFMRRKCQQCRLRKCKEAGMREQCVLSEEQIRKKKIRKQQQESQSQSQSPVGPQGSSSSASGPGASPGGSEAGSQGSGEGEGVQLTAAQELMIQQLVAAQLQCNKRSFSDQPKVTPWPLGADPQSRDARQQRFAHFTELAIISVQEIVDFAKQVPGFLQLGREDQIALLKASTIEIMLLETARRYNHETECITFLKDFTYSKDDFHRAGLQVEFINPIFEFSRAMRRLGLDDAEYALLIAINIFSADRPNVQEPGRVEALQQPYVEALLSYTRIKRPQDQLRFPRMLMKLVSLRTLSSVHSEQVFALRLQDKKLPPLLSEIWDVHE
T1 sequence (Q8TDV5 whole entry): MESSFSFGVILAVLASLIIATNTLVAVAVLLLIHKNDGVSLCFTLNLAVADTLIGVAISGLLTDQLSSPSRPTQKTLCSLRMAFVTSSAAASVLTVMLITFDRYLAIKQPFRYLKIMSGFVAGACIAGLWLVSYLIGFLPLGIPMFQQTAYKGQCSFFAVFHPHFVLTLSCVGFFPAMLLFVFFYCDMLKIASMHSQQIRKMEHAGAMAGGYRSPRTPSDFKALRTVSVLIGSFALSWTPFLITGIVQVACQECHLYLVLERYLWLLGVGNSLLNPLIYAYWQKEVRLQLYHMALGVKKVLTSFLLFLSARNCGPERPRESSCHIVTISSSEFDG

`COC(=O)/C=C/c1cccc(N(Cc2ccc(-c3ccc(N(C)C)cc3)cc2)C(=O)C2CCCCC2)c1` [Compound 7, Fexaramine, reference compound]: the “Reported FXR activity (in words)” value with FXR is “specific and potent partial agonist against FXR”.
For the molecule `COc1cc(Cl)cc(N(CC23CCC(c4ccc(OC)c(C#N)c4)(CC2)CC3)C(=O)c2ccncc2C)c1` [Compound 20p], the activity at 30 µM was 1.8% at GPR119 (30 µM, read-out: GPR119 cellular agonist effect, % of control response to reference agonist); 5.9% at GPR40 (30 µM, read-out: GPR40 cellular agonist effect, % of control response to reference agonist); -5.2% at GPR120 (30 µM, read-out: GPR120 cellular agonist effect, % of control response to reference agonist); 4.5% on PXR (30 µM, read-out: PXR agonist effect, % of control response to reference agonist); 0.2% at LXR alpha (30 µM, read-out: LXR alpha agonist effect, % of control response to reference agonist); -2.5% at CAR (30 µM, read-out: CAR agonist effect, % of control response to reference agonist). Besides, the activity at 30 µM was 0% on PPAR alpha (30 µM, read-out: PPAR alpha agonist effect, % of control response to reference agonist); -1% at PPAR gamma (30 µM, read-out: PPAR gamma agonist effect, % of control response to reference agonist); -3.6% at PPAR delta (30 µM, read-out: PPAR delta agonist effect, % of control response to reference agonist); 3.7% at LXR beta (30 µM, read-out: LXR beta agonist effect, % of control response to reference agonist). Besides, the half-maximal effective concentration (EC50) at GPR119 (cellular functional assay), on GPR40 (cellular functional assay), on GPR120 (cellular functional assay), on PXR (NR functional assay), on LXR alpha (NR functional assay) and on CAR (NR functional assay) was > 30 µM each time. Further, the EC50 on PPAR alpha (NR functional assay), on PPAR gamma (NR functional assay), at PPAR delta (NR functional assay), on LXR beta (NR functional assay), on RXR alpha (binding assay) and on ER alpha (binding assay) was > 30 µM each time. Moreover, the concentration giving a half-maximal response (EC50) at ER beta (binding assay) is > 30 µM. For the same molecule, the inhibition at 30 µM at RXR alpha (30 µM, read-out: RXR alpha binding, % inhibition of the binding of radioactively labeled ligand) is -12.3%; at ER alpha (30 µM, read-out: ER alpha binding, % inhibition of the binding of radioactively labeled ligand) it was -16.6%; on ER beta (30 µM, read-out: ER beta binding, % inhibition of the binding of radioactively labeled ligand) it was 17%. Moreover, the “Off-target activity against GPCRs and NRs (in words)” value in the data set with GPCRs and NRs is “no significant off-target activity against GPCRs and NRs”.
